Source: BindingDB's records for doi:10.1021/jm00168a028 (University of Minnesota, 1990)
Where a SMILES comes first, the peptide text is derived from it. [ ]: non-standard residue; d: D form. The star is where a group is joined. Tyr(Nα,Nα-allyl2) = C=CCN(CC=C)[C@@H](Cc1ccc(O)cc1)C(=O)*; Aib = CC(C)(N)C(=O)O

What was measured:
[1] = Binding affinity was measured by the displacement of [3H]- DADLE in guinea pig brain membrane of Opioid receptor delta 1
[2] = Binding affinity was measured by the displacement of [3H]- DADLE in guinea pig brain membrane of opioid receptor delta
[3] = Binding affinity was measured by the displacement of [3H]- DADLE in guinea pig brain membrane of Opioid receptor delta 1; remark: listed apart in the source

| Compound | Ki [1] [nM] | Ki [2] [nM] | Ki [3] [nM] |
| --- | --- | --- | --- |
| COc1ccc2c3c1O[C@H]1c4[nH]c5ccccc5c4C[C@@]4(O)[C@@H](C2)N(CC2CC2)CC[C@]314 [22-cyclopropylmethyl-16-methoxy-(2S,13R)-14-oxa-11,22-diazaheptacyclo[13.9.1.01,13.02,21.04,12.05,10.019,25]pentacosa-4(12),5(10),6,8,15(25),16,18-heptaen-2-ol(HCl1.5H2O)] | 40 | 40 | – |
| CN1CC[C@]23c4c5ccc(O)c4O[C@H]2c2[nH]c4ccccc4c2C[C@@]3(O)[C@H]1C5 | 0.7 | – | – |
| C=CCN(CC=C)[C@@H](Cc1ccc(O)cc1)C(=O)NC(C)(C)C(=O)NC(C)(C)C(=O)N[C@@H](Cc1ccccc1)C(=O)N[C@@H](CC(C)C)C(=O)O [ICI-174864] ({Tyr(Nα,Nα-allyl2)}-[Aib][Aib]FL-OH) | – | – | 35 |
